Entries after “also recorded” stand apart in the source; their conditions may differ.
Assays:
[1] = system: gene expression in PC9 cells; experiment: RNA-Seq gene expression in PC9 cells; settings: erlotinib 1 μM, THZ1 100 nM, one or seven days
Experimental: (§4) RNA was isolated from untreated RT112 cells and RT112 cells treated with 1 μM BGJ398, 100 nM THZ1, or combination treatment with THZ1 plus BGJ398, and similarly, untreated PC9 cells and PC9 cells treated with 1 μM erlotinib, 100 nM THZ1, or THZ1 plus erlotinib. Both cell lines were harvested at two time-points: following one day or seven days of treatment. Cell number was determined and total RNA was isolated using the RNeasy micro kit (Qiagen). Ambion® ERCC RNA Spike-In Mix (Life technology) was added to total RNA. cDNA libraries were prepared using the NEBNext® Ultra™ RNA Library Prep Kit for Illumina (New England Biolabs) according to the manufacturer's instructions. Library integrity was assessed on an Agilent 2100 Bioanalyzer (Agilent). Sequencing was performed on the Hiseq 2000 platform (Illumina) to a minimum depth of 30 million reads per sample.
(§5) QC-passed reads were aligned to the human reference genome (hg19) using PRADA.^46 Transcript per million (TPM) values were determined using RSEM.^47 TPM values were normalized with the voom transformation.^48 Expression changes for each gene in treated cells compared to untreated controls was determined using the limma package^49 as log 2-transformed fold change and a multiple-testing adjusted p-value. Heatmap visualization was performed using R. Log 2-transformed fold changes were not scaled and were colored on a blue-red scale.
(§6) Differentially expressed genes (defined as log 2-fold change value greater than 1.5 or less than −1.5, and p-value less than 0.01) were input into Ingenuity Pathway Analysis (www.ingenuity.com), to identify a) enriched pathways, 2) upstream regulators, andd 3) downstream effectors. […] We considered an activation z-score of greater than [2] to be activated, and less than [−2] to be inhibited. Gene ontology term (GO-term) enrichment analysis was performed using the Database for Annotation, Visualization and Integrated Discovery (DAVID) v6.7 (david.abcc.ncifcrf.gov/).

[2] = system: signaling pathways in PC9 cells; experiment: Western blot / immunoblot of signaling pathways in PC9 cells; format: cell-based; settings: 24 hours, erlotinib 1 μM, THZ1 100 nM
Experimental: (§1) Cells were lysed in RIPA buffer (Roche) containing protease inhibitors (Roche) and Phosphatase Inhibitor Cocktails I and II (CalBioChem). Protein concentrations were determined using a Bradford assay (Bio-Rad). Proteins were separated by SDS gel electrophoresis using NuPAGE 4-12% Bis-Tris gels (Life Technologies) in MOPS buffer. Resolved protein was transferred to nitrocellulose membranes, blocked in 10% milk and probed with primary antibodies recognizing EGFR (2232S), p-EGFR (2234S), FGFR3 (4574S), p-FGFR (3471S), HER2/ERBB2 (2165), p-ERBB2 (2243S), STAT1 (9172), p-STAT1 (9167), STAT3 (4904S), p-STAT3 (9145S), AKT (9272S), p-AKT (4060P), ERK (4695S), p-ERK (4370S), FRA1 (5281S), CDK12 (11973) (all from Cell Signaling Technology), CDK7 (sc-723, Santa Cruz), actin (A5441, Sigma-Aldrich) and vinculin (V9131, Sigma-Aldrich) in 5% milk or 3% bovine serum albumin as recommended by the manufacturer. After incubation with the appropriate secondary antibody (Pierce anti-mouse IgG/IgM (31444, Thermo Scientific) and anti-rabbit IgG (31460, Thermo Scientific)), blots were imaged on film.
(§2) Western blots were used to characterize the signaling pathways in selected cell lines. The assays were performed at 24 hours under the following conditions: untreated, treated with 1 μM erlotinib, treated with 100 nM THZ1, or treated with a combination of erlotinib and THZ1, in PC9 and RT112 cells. These doses were also used in the colony formation assays and the RNAseq and ChIPseq experiments. […] However, it could be blocking the activation of downstream STAT3 targets. […] FGFR is known to be a bypass mechanism in PC9, but this was not seen with THZ1 treatment or with the combination treatment. […] This is unexpected, given that THZ1 should block CDK7-mediated RNAPII phosphorylation. This may be due to the dose or the time point assayed.

[3] = system: RT112 bladder carcinoma cells (FGFR3-dependent); experiment: Colony formation assay in RT112 cells; format: cell-based, human; settings: for colony formation: 4 weeks, crystal violet staining, relative to control; for colony formation, transcription inhibitor alone or in combination with BGJ398: one week, 24-well plate (FIG. 35)
From the text: Media (and drug) were replaced weekly.

[4] = system: gene expression in RT112 cells; experiment: RNA-Seq gene expression in RT112 cells; format: cell-based, human; settings: for gene expression (transcriptional programs) by RNAseq: BGJ398 1 μM, THZ1 100 nM, one or seven days
Experimental: as §4, §5, §6

[5] = system: signaling pathways in A549 cells; experiment: Western blot / immunoblot of signaling pathways in A549 cells; format: cell-based; settings: 24 hours
Experimental: as §1
(§3) These two lines were both shown in Sharma et al. (Cell, 2010, 141(1):69-80) to employ the STAT3 feedback loop. p-ERK was decreased in the combination treatment arm. […] Therefore, there are some generalizable findings across the four lines.

[6] = system: signaling pathways in RT112 cells; experiment: Western blot / immunoblot of signaling pathways in RT112 cells; format: cell-based, human; settings: 24 hours
Experimental: as §1
as §2, with “The assays were performed at 24 hours under the following conditions: untreated, treated with 1 μM erlotinib, treated with 100 nM THZ1, or treated with a combination of erlotinib and THZ1, in PC9 and RT112 cells.” left out

[7] = system: signaling pathways in H23 cells; experiment: Western blot / immunoblot of signaling pathways in H23 cells; format: cell-based; settings: 24 hours
Experimental: as §1, §3

IL-6 = IL-6 in PC9 cell culture supernatants (Luminex cytokine assay, ELISA); format: cell-based; settings: PC9 cells; erlotinib 1 μM, THZ1 100 nM; 24 and 72 hours
Experimental: A Luminex Multiplex Custom Cytokine assay was used to assay cytokines in RT112 and PC9 cell culture supernatants treated with vehicle, 1 μM BGJ398 or erlotinib respectively, 100 nM THZ1, or THZ1 in combination with BGJ398 or erlotinib, at 24 and 72 hours. Cytokines assayed for were: CCL2/MCP-1, CCL5/RANTES, CXLC5, IL-1 alpha and beta, IL-2, IL-4, IL-5, IL-6, IL-8, IL-10, IL-17a, GM-CSF, TNF-alpha, VEGF, INF-gamma. IL-6 was also assayed in cell culture supernatants using the Quantikine IL-6 ELISA kit (D6050, R&D Systems) as per the manufacturer's protocol.

[8] = system: H3K27Ac enhancer signal in RT112 cells; experiment: H3K27Ac ChIP-Seq in RT112 cells; format: cell-based, human; settings: seven days of treatment, vs DMSO
Experimental: RT112 and PC9 cells treated for seven days with vehicle, 1 μM BGJ398 and erlotinib (respectively), 100 nM THZ1, or BGJ398/erlotinib in combination with THZ1. H3K27Ac ChIP-Seq was performed using Abcam antibody (cat # AB4729, lot # GR183922-1) as previously described,^8 with minor modifications (cells were crosslinked for 20 min, Dynal magnetic beads (Sigma) were bound with 10 μg of the indicated antibody).
Illumina sequencing libraries were generated and data was processed as described elsewhere.^50 In brief, libraries were generated for ChIP samples following the Illumina TruSeq™ DNA Sample Preparation v2 kit protocol with minor changes. All ChIP-Seq data sets were aligned using bowtie 1.0.1 to build […] of the human genome with -p 4—best -k 2 -m 2—sam -1 40. Wiggle files for gene tracks were created using Macs 1.4.2 with options -w -S -space=50 to count reads in 50 bp bins.
Regions enriched in H3K27Ac were identified using SICER^51 with corresponding input DNA control, and parameters -t 1 (max 1 read per position), -w 200 (window size 200), -i 150 (fragment size), -g 200 (gap size 200; 1 window), -t 0.74 (interrogable genome fraction), -e 200 (e-value), -p 1e-9 (significance p value cutoff). […]
Density of H3K27Ac ChIP-Seq signal (FIG. 51F) was calculated using bamToGFF (github.com/BradnerLab/pipeline). […]

RT112 cells = experiment: Resistance emergence in RT112 cells under BGJ398 treatment (FIG. 1); format: cell-based, human
From the text: One mechanism of resistance may be through the upregulation of NRG1 due to signaling via ERBB2/ERBB3 and is rapid (a matter of days) and reversible (Wang et al., Oncogene, 2015, 34(17):2167-77). The resistance may also be associated with EMT.

[9] = system: A549 cells (KRAS-mutant NSCLC); settings: 4 weeks, crystal violet staining
Experimental: 100,000 cells were seeded in 6-well plates, allowed to adhere overnight, and then incubated with media containing vehicle or drug as indicated for 4 weeks. Media (and drug) were replaced weekly. At 4 weeks plates were, fixed with 1% paraformaldehyde, and then stained with 0.1% crystal violet as previously described (medicine.yale.edu/lab/kim/resources/protocols/cell/crystal- violet_stain.aspx) to assess colony formation. Results were quantified using an ImageJ Colony Area PlugIn.^44

[10] = system: EGFR-T790M-L858R; p53-R172H lung tumors; format: in vivo; settings: TLP mice
From the text: Mice (both male and female) bred to contain conditional EGFR-T790M-L858R lox-stop-lox (LSL) allele and the p53-dominant negative R172H LSL allele to a final genotype of EGFR-T790M-L858R^LSL/−; p53-R172H^LSL/− maintained on a mixed background, were induced at 6 weeks of age with Adenovirus-Cre recombinase by intranasal administration^45 to allow for mediated recombination of lox-stop-lox modified mutant-EGFR and p53 alleles. […] Mice were imaged using a 7 Tesla BioSpec (Bruker Biospin) optimized for image requisition of pulmonary parenchyma and vessels in mice. Animals were anesthetized with 2% isoflurane IsoFlo; Abbott) in 100% oxygen via a nose cone. Respiratory and cardiac gating was applied to minimize motion artifacts during imaging. 24 slices (1 mm) were collected. Tumor volume per animal was quantified manually, based on a minimum of eight consecutive axial image sequences, using the 3D Slicer. […] Investigators were not blinded to group allocation. Mice were imaged biweekly by MRI until end-stage disease to determine tumor volume. Mice weights and signs of toxicity were monitored daily during the course of treatment. End-stage disease was reached when animals acquired clinical symptoms secondary to their lung tumors, in accordance with Dana Farber Cancer Institute Animal Care and Use Committee regulations.

CN(C)C/C=C/C(=O)Nc1ccc(C(=O)Nc2cccc(Nc3ncc(Cl)c(-c4c[nH]c5ccccc45)n3)c2)cc1 [THZ1]
gene expression (transcriptional programs) by RNAseq [1]: attenuation of these programs | FRA1 protein levels [2]: nor did it restore FRA1 levels | RNAPII phosphorylation [2]: increase in RNAPII phosphorylation | STAT1 phosphorylation [2]: blocked STAT1 phosphorylation | FGFR activation ([2]; alone or combined): not seen; also recorded: blocked | p-STAT3 (STAT3 phosphorylation/activation) ([2]; alone or combined): does not inhibit the feedback activation of STAT3; also recorded: not blocking the activation of p-STAT3; also recorded: did not affect the phosphorylation status of STAT3 | colony formation [3]: comparable to control | gene expression (transcriptional programs) by RNAseq [4]: attenuation of these programs | RNAPII phosphorylation [5]: again increased | ERBB2 activation [6]: blocked ERBB2 activation | RNAPII phosphorylation [6]: increase in RNAPII phosphorylation | FRA1 protein levels ([6]; BGJ398 1 μM, THZ1 100 nM): nor did it restore FRA1 levels | STAT1 phosphorylation ([6]; BGJ398 1 μM, THZ1 100 nM): blocked STAT1 phosphorylation | p-STAT3 (STAT3 phosphorylation/activation) ([6]; BGJ398 1 μM, THZ1 100 nM, alone or combined): does not inhibit the feedback activation of STAT3; also recorded: did not affect the phosphorylation status of STAT3; also recorded: not blocking the activation of p-STAT3 | RNAPII phosphorylation [7]: again increased | IL-6 levels in cell culture supernatants (IL-6): suppressed the increase in IL-6 levels

CCN1CCN(c2ccc(Nc3cc(N(C)C(=O)Nc4c(Cl)c(OC)cc(OC)c4Cl)ncn3)cc2)CC1 [BGJ398]
colony formation [3]: comparable to control | gene expression (transcriptional programs) by RNAseq [4]: transcriptionally distinct from the parental population; also recorded: up-regulated the expression of genes involved in pro-survival programs | gene expression of the top 200 up-regulated genes with BGJ398 treatment ([4]; log2-normalized FPKM, two-tailed t-test): significant increase in gene expression | H3K27Ac ChIP-Seq signal at enhancers [8]: significant increase in H3K27Ac signal | resistance emergence (RT112 cells): led to resistance emergence

C=CC(=O)Nc1cccc(Nc2cc(N3CCCCC3CCO)nc3c(CC)cnn23)c1 (stereo not drawn) [E9]
colony formation, transcription inhibitor alone or in combination with BGJ398 [3]: works as well as THZ1

C[C@H](CCC(=O)O)[C@H]1CC[C@H]2[C@@H]3CC[C@@H]4C[C@H](O)CC[C@]4(C)[C@H]3C[C@H](O)[C@]12C [DCA]
colony formation, transcription inhibitor alone or in combination with BGJ398 [3]: modest results, even in combination

C[C@@H](Oc1cc(-c2cnn(C3CCNCC3)c2)cnc1N)c1c(Cl)ccc(F)c1Cl [crizotinib]
colony formation [9]: ineffective

C=CC(=O)Nc1cccc(Oc2nc(Nc3ccc(N4CCN(C)CC4)cc3OC)ncc2Cl)c1 [WZ4002]
time to end-stage disease [10]: end-stage disease by five weeks | tumor response by MRI at two weeks ([10]; WZ4002 50 mg/kg QD oral gavage): initial response | tumor response by MRI at four weeks ([10]; WZ4002 50 mg/kg QD oral gavage, THZ1 10 mg/kg BID i.p.): rapidly developed resistance and rebounded

Source: US10702527B2, “Combination therapy of transcription inhibitors and kinase inhibitors” (Dana-Farber Cancer Institute, Inc., priority 2015, dated 2020)
